From patent US20060069132A1, “Azolecarboxamide herbicides” (priority 2004, published 2006)

How the values were obtained:
barnyardgrass [1] = assay: Test B flooded paddy test; assay type: in vivo, Echinochloa crus-galli; details: 1000 g ai/ha, scale 0 to 100 (0 no effect, 100 complete control)
Procedure, shortened: (§1)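 Read-out: visual comparison with controls, scored 0 to 100, where 100 means complete control and 0 no effect. Formulated chemicals were applied postemergence to plants 2–18 cm tall (1- to 4-leaf), or to flooded-paddy plants at the 2-leaf stage, then held 13 to 15 days under glass.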

wheat = assay: Test B postemergence herbicide test; assay type: in vivo, Triticum aestivum; design: key to Wheat plant response rating: 0 = no effect, 100 = complete control; details: postemergence
Procedure, shortened: (§2)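 Greenhouse test; postemergence application to plants at 1–4 leaves (2–18 cm); paddy species at 2 leaves; evaluated visually vs controls at 13–15 days; scale 0–100 (100 = complete control).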

barnyardgrass [2] = assay: Test B pre-/postemergence herbicide test; assay type: in vivo, Echinochloa crus-galli; details: for Barnyardgrass plant response rating: postemergence
Procedure, shortened: (§3)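 Pre: seeds sown, then sprayed. Post: 1–4-leaf plants (2–18 cm) sprayed at the same time. Paddy: flooded, treated at 2-leaf stage. Formulation: non-phytotoxic solvent with surfactant. Greenhouse 13–15 days; visual 0–100 score relative to controls.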

rice [3] = assay: Test B flooded paddy test; assay type: in vivo, Oryza sativa; details: 1000 g ai/ha, scale 0 to 100 (0 no effect, 100 complete control)
Procedure, shortened: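 Treated at 2-leaf (paddy) or 1–4-leaf, 2–18 cm (postemergence); greenhouse 13–15 d; visual score vs control, 0 none to 100 complete control; dash = not tested.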

large crabgrass = assay: Test B pre-/postemergence herbicide test; assay type: in vivo, Digitaria sanguinalis; details: for Crabgrass, Large plant response rating: postemergence
Procedure, shortened: (§4)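 Herbicidal effect was judged by eye on a 0–100 scale after plants stood 13 to 15 days in the greenhouse following pre- or postemergence treatment with surfactant-containing formulations.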

corn = assay: Test B pre-/postemergence herbicide test; assay type: in vivo, Zea mays; details: for Corn plant response rating: postemergence
Procedure, shortened: as §4

rice [4] = assay: Test C flooded paddy test; assay type: in vivo, Oryza sativa
Procedure, shortened: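 Injury scored visually against controls on a 0 (no effect) to 100 (complete control) scale, 12 to 14 days after treatment in greenhouse. Flooded paddy plants treated at 2-leaf stage; postemergence plants at 1- to 4-leaf stage, 2 to 18 cm tall.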

ducksalad [5] = assay: Test B flooded paddy test; assay type: in vivo, Heteranthera limosa; details: 1000 g ai/ha, scale 0 to 100 (0 no effect, 100 complete control)
Procedure, shortened: as §1

morningglory = assay: Test B pre-/postemergence herbicide test; assay type: in vivo, Ipomoea coccinea; details: for Morningglory plant response rating: postemergence
Procedure, shortened: as §3

rice [6] = assay: Test B pre-/postemergence herbicide test; assay type: in vivo, Oryza sativa; details: 0 = no effect, 100 = complete control, preemergence
Procedure, shortened: as §4

Surinam grass = assay: Test B pre-/postemergence herbicide test; assay type: in vivo, Urochloa decumbens; details: for Surinam Grass plant response rating: postemergence
Procedure, shortened: as §4

blackgrass = assay: Test B postemergence herbicide test; assay type: in vivo, Alopecurus myosuroides; details: postemergence
Procedure, shortened: as §1

pigweed = assay: Test B pre-/postemergence herbicide test; assay type: in vivo, Amaranthus retroflexus; details: for Pigweed plant response rating: postemergence
Procedure, shortened: as §4

wild oat = assay: Test B postemergence herbicide test; assay type: in vivo, Avena fatua; details: postemergence
Procedure, shortened: as §2

[7] = test system: smallflower umbrella sedge; assay: Test C flooded paddy test; assay type: in vivo, Cyperus difformis
cocklebur = assay: Test B pre-/postemergence herbicide test; assay type: in vivo, Xanthium strumarium; details: for Cocklebur plant response rating: postemergence
Procedure, shortened: as §3

velvetleaf = assay: Test B pre-/postemergence herbicide test; assay type: in vivo, Abutilon theophrasti; details: for Velvetleaf plant response rating: postemergence
Procedure, shortened: as §4

giant foxtail = assay: Test B pre-/postemergence herbicide test; assay type: in vivo, Setaria faberi; details: for Foxtail, Giant plant response rating: postemergence
Procedure, shortened: as §4

lambsquarters = assay: Test B pre-/postemergence herbicide test; assay type: in vivo, Chenopodium album; details: for Lambsquarters plant response rating: postemergence
Procedure, shortened: as §4

barnyardgrass [8] = assay: Test C flooded paddy test; assay type: in vivo, Echinochloa crus-galli
Procedure, shortened: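 Plants were grown to the 1- to 4-leaf stage (2–18 cm) and then treated postemergence, or grown to the 2-leaf stage for the flooded paddy test. They were held in a greenhouse for 12 to 14 days and then scored by eye against controls, where 0 is no effect and 100 is complete control.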

ducksalad [9] = assay: Test C flooded paddy test; assay type: in vivo, Heteranthera limosa
[10] = test system: small flower umbrella sedge; assay: Test B flooded paddy test; assay type: in vivo, Cyperus difformis; details: 1000 g ai/ha, scale 0 to 100 (0 no effect, 100 complete control)
Procedure, shortened: as §1

[11] = 125 g ai/ha, visual rating, scale 0 (no effect) to 100 (complete control)
[12] = 500 g ai/ha, scale 0 to 100, 0 is no effect, 100 is complete control
[13] = 125 g ai/ha, 0 = no effect, 100 = complete control, preemergence
[14] = 500 g ai/ha, visual rating, 0 = no effect, 100 = complete control, preemergence
[15] = 125 g ai/ha, scale 0 to 100 (0 no effect, 100 complete control)
[16] = 250 g ai/ha, scale of 0 to 100, 0 is no effect, 100 is complete control
[17] = 500 g ai/ha, visual rating after 12 to 14 days, scale 0 to 100 (0 no effect, 100 complete control)

SMILES: C#CCNC(=O)c1ccc(F)c(NC(=O)c2cc(C3(C)CC3)nn2CC)c1 [Compound 302]
- Barnyardgrass plant response rating (barnyardgrass [1]): 70
- Wheat plant response rating (wheat; [11]): 0
- Wheat plant response rating (wheat; [12]): 10
- Barnyardgrass plant response rating (0 to 100 scale) (barnyardgrass [2]; [13]): 0
- Barnyardgrass plant response rating (barnyardgrass [2]; [11]): 10
- Plant response rating, Barnyardgrass (barnyardgrass [2]; [14]): 60
- Barnyardgrass plant response rating (barnyardgrass [2]; [12]): 40
- Rice plant response rating (rice [3]): 70
- Crabgrass, Large plant response rating (0 to 100 scale) (large crabgrass; [13]): 70
- Crabgrass, Large plant response rating (large crabgrass; [11]): 0
- Plant response rating, Crabgrass, Large (large crabgrass; [14]): 100
- Crabgrass, Large plant response rating (large crabgrass; [12]): 10
- Corn plant response rating (0 to 100 scale) (corn; [13]): 0
- Corn plant response rating (corn; [11]): 10
- Plant response rating, Corn (corn; [14]): 10
- Corn plant response rating (corn; [12]): 50
- Rice plant response rating (rice [4]; 62 g ai/ha, scale 0 to 100): 0
- Rice plant response rating (rice [4]; [15]): 0
- Rice plant response rating (rice [4]; [16]): 0
- Plant response rating, Rice (rice [4]; [17]): 55
- Ducksalad plant response rating (ducksalad [5]): 90
- Morningglory plant response rating (0 to 100 scale) (morningglory; [13]): 0
- Morningglory plant response rating (morningglory; [11]): 30
- Plant response rating, Morningglory (morningglory; [14]): 10
- Morningglory plant response rating (morningglory; [12]): 60
- Rice plant response rating (0 to 100 scale) (rice [6]; 125 g ai/ha): 0
- Plant response rating, Rice (rice [6]; 500 g ai/ha, visual rating): 10
- Surinam Grass plant response rating (0 to 100 scale) (Surinam grass; [13]): 10
- Surinam Grass plant response rating (Surinam grass; [11]): 0
- Plant response rating, Surinam Grass (Surinam grass; [14]): 30
- Surinam Grass plant response rating (Surinam grass; [12]): 10
- Blackgrass plant response rating (blackgrass; [11]): 10
- Blackgrass plant response rating (blackgrass; [12]): 20
- Pigweed plant response rating (0 to 100 scale) (pigweed; [13]): 100
- Pigweed plant response rating (pigweed; [11]): 80
- Plant response rating, Pigweed (pigweed; [14]): 100
- Pigweed plant response rating (pigweed; [12]): 90
- Oat, Wild plant response rating (wild oat; [11]): 0
- Oat, Wild plant response rating (wild oat; [12]): 10
- Sedge, Umbrella plant response rating ([7]; 62 g ai/ha, scale 0 to 100): 15
- Sedge, Umbrella plant response rating [7, 15]: 50
- Sedge, Umbrella plant response rating [7, 16]: 75
- Plant response rating, Sedge, Umbrella [7, 17]: 85
- Cocklebur plant response rating (0 to 100 scale) (cocklebur; [13]): 0
- Cocklebur plant response rating (cocklebur; [11]): 10
- Plant response rating, Cocklebur (cocklebur; [14]): 0
- Cocklebur plant response rating (cocklebur; [12]): 10
- Velvetleaf plant response rating (velvetleaf; [11]): 10
- Plant response rating, Velvetleaf (velvetleaf; [14]): 80
- Velvetleaf plant response rating (velvetleaf; [12]): 10
- Foxtail, Giant plant response rating (0 to 100 scale) (giant foxtail; [13]): 0
- Foxtail, Giant plant response rating (giant foxtail; [11]): 0
- Plant response rating, Foxtail, Giant (giant foxtail; [14]): 30
- Foxtail, Giant plant response rating (giant foxtail; [12]): 20
- Lambsquarters plant response rating (0 to 100 scale) (lambsquarters; [13]): 0
- Lambsquarters plant response rating (lambsquarters; [11]): 60
- Plant response rating, Lambsquarters (lambsquarters; [14]): 100
- Lambsquarters plant response rating (lambsquarters; [12]): 70
- Barnyardgrass plant response rating (barnyardgrass [8]; 62 g ai/ha, scale 0 to 100 (0 no effect, 100 complete control)): 0
- Barnyardgrass plant response rating (barnyardgrass [8]; [15]): 0
- Barnyardgrass plant response rating (barnyardgrass [8]; [16]): 10
- Plant response rating, Barnyardgrass (barnyardgrass [8]; [17]): 35
- Ducksalad plant response rating (ducksalad [9]; 62 g ai/ha, scale 0 to 100): 0
- Ducksalad plant response rating (ducksalad [9]; [15]): 25
- Ducksalad plant response rating (ducksalad [9]; [16]): 30
- Plant response rating, Ducksalad (ducksalad [9]; [17]): 85
- Sedge, Umbrella plant response rating [10]: 80
